Molecular target: T1, recombinant human MIF protein (Homo sapiens, UniProt P14174)
T1 construct: commercial recombinant human MIF (PeproTech), amine-coupled to CM7 chip; homotrimer
T1 sequence (P14174 2-115): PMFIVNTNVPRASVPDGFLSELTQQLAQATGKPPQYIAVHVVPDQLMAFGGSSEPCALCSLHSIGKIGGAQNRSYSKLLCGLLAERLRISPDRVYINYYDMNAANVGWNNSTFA
Experiment: surface plasmon resonance (Biacore T200)
Assay type: binding

- Kd: 725 nM
Structure (SMILES): Cn1c2ccccc2c2cc(C3=NCCc4c3[nH]c3ccccc43)ccc21 [compound 7, 1-(9′-methyl-3′-carbazole)-3,4-dihydro-β-carboline]
